How the values were obtained:
Rattus norvegicus [1] = species: Rattus norvegicus; experiment: Negative logarithm of the molar concentration required to relax rat aorta precontracted with 30 mM KCL by 50% of intrinsic activity; assay type: functional
Rattus norvegicus [2] = species: Rattus norvegicus; experiment: Intrinsic activity in rat aorta was determined; assay type: functional

Structure (SMILES) | EC50 (Rattus norvegicus [1]) | Intrinsic activity (Rattus norvegicus [2])
O=[N+]([O-])c1ccc2c(c1)C(c1cccc[n+]1[O-])=CC(CF)(CF)O2 | 1.74 nM | 66.3%
N#C[N-][n+]1ccccc1C1=CC(CF)(CF)Oc2ccc(C(F)(F)F)cc21 | 9.55 nM | 62.3%
CS(=O)(=O)[N-][n+]1ccccc1C1=CC(CF)(CF)Oc2ccc([N+](=O)[O-])cc21 | 3020 nM | 74.2%
N#C[N-][n+]1ccccc1C1=CC(CF)(CF)Oc2ccc(C(F)(F)C(F)(F)F)cc21 | 2.95 nM | 71.9%
O=C([N-][n+]1ccccc1C1=CC(CF)(CF)Oc2ccc([N+](=O)[O-])cc21)Nc1ccccc1 | 9120 nM | 89.5%
N#Cc1ccc2c(c1)C(c1cccc[n+]1[O-])=CC(CF)(CF)O2 | 16.6 nM | 71.1%
N#C[N-][n+]1ccccc1C1=CC(CF)(CF)Oc2ccc([N+](=O)[O-])cc21 | 4.57 nM | 72.7%
N#C[N-][n+]1ccccc1C1=CC(CF)(CF)Oc2ccc(C#N)cc21 | 51.3 nM | 76.9%
CC1(C)C=C(c2cccc[n+]2[O-])c2cc(C#N)ccc2O1 | 24.5 nM | 78.2%
CC1(C)Oc2ccc(C#N)cc2[C@@H](N2CCCC2=O)[C@@H]1O [LEVCROMAKALIM] | 162 nM | 72.5%
CC1(C)C=C(c2cccc[n+]2[N-]C#N)c2cc(C#N)ccc2O1 | 97.7 nM | 63.2%
CC(=O)[N-][n+]1ccccc1C1=CC(CF)(CF)Oc2ccc([N+](=O)[O-])cc21 | > 10000 nM | 
O=C([N-][n+]1ccccc1C1=CC(CF)(CF)Oc2ccc([N+](=O)[O-])cc21)c1ccccc1 | > 10000 nM | 
N#C[N-][n+]1ccccc1C1=CC(CF)(CF)Oc2ccc(C(F)(F)C(F)(F)C(F)(F)F)cc21 | 17.8 nM | 74.6%
O=[N+]([O-])[N-][n+]1ccccc1C1=CC(CF)(CF)Oc2ccc([N+](=O)[O-])cc21 | 1000 nM | 98.5%
